Measured values as given in PMC3221503, “Study on Cytochrome P-450 Dependent Retinoic Acid Metabolism and its Inhibitors as Potential Agents for Cancer Therapy” (Scientia Pharmaceutica, 2011).
Read-outs that look alike come from different tables or passages of the source.

What was measured:
[1] = test system: cytochrome P-450 dependent retinoic acid metabolism in male rat hepatic microsomes; experiment: RA metabolism assay: in vitro inhibition of retinoic acid metabolism by P-450 inhibitors; details: inhibitor 100 μM, RA 3 μM, male rat hepatic microsomes 0.12 mg/ml, 37°C, 15 min, mean of three determinations, (-) denotes stimulation of RA metabolism
Protocol: (§1) Controls (10 μl, DMSO) were also carried with each experiment.
(§2) The assay followed a previously described one [17]: The column was a 10 μm C18 μ Bondapak (3.9× 300mm, Millipore) and the mobile phase was acetonitrile: water: formic acid (75:25:0.05v/v) containing 10 mM ammonium acetate. Flow rate was 1.2 ml.Min^−1. Eluted ^3H compounds were detected on line by a model 970 detector (Reeve) using Hisafe III scintillation fluid. The retention time of ^3H-RA was 10 min and oxidative metabolites of ^3H-RA were detected, eluting samples over 3 to 7 min. Metabolism was determined from the % conversion of RA into its total metabolites based on AUC values.
(§3) Three separate experiments (each with triplicate tubes) were carried out.
(§4) The IC50 for ketoconazole and liarozole were determined for comparative purposes.
(§5) The IC50 was calculated from a plot of percentage inhibition versus log inhibitor concentration using Cricket Graph 1.3.

[2] = test system: cytochrome P-450 dependent retinoic acid metabolism; experiment: as above; details: male, rat
Protocol: as §1, §2, §3, §4, §5

[3] = test system: cytochrome P-450 dependent retinoic acid metabolism in male rat hepatic microsomes; details: pH 7.4
Protocol: as §1, §2, §3, §4, §5

mouse embryo = test system: mouse embryo; parameters: method as in PMID 1965892; details: cited from earlier work
[4] = parameters: method as in PMID 1328295; details: cleared from the plasma; cited from earlier work
[5] = rat liver microsomes, pH 7.4, probe 3H-retinoic acid (RA), 3 μM

## c1ccc(Cn2ccnc2)cc1 [1-Benzylimidazole]
[1]
  % Inhibition of retinoic acid metabolism: 7.6%

## c1csc(-c2nnco2)c1 [2-(Thiophen-2-yl)-1,3,4-oxadiazole]
[2]; [5]
  inhibition at 15 min, 100 μM: 0%

## Cc1nc2cc(-c3ccccc3)ccc2o1 [2-Methyl-5-phenyl-1,3-benzoxazole]
[2]; [5]
  inhibition at 15 min, 100 μM: 18%

## Brc1ccc(-c2csnn2)cc1 [4-(4-Bromophenyl)-1,2,3-thiadiazole]
[2]; [5]
  inhibition at 15 min, 100 μM: 11.6%

## O=c1cc(O)c2ccccc2o1 [4-Hydroxycoumarin]
[1]
  % Inhibition of retinoic acid metabolism: 38.50%

## Clc1cccc(-c2cnco2)c1 [5-(3-Chlorophenyl)-1,3-oxazole]
[2]; [5]
  inhibition at 15 min, 100 μM: 8.6%

## Cc1ccc(-c2ncns2)cc1 [5-(4-Methylphenyl)-1,2,4-thiadiazole]
[2]; [5]
  inhibition at 15 min, 100 μM: 4.8%

## COc1ccc2ccc(=O)oc2c1 [7-Methoxycoumarin]
[2]; [5]
  inhibition at 15 min, 100 μM: 11.7%

## CCC1(c2ccc(N)cc2)CCC(=O)NC1=O (stereo not drawn) [Aminoglutethimide]
[2]; [5]
  inhibition at 15 min, 100 μM: 30.8%

## C[C@@H]1[C@H](O)[C@@H](C)/C=C/C=C/C=C/C=C/C=C/C=C/C=C/[C@H](O[C@@H]2O[C@H](C)[C@@H](O)[C@H](N)[C@@H]2O)C[C@@H]2O[C@](O)(C[C@@H](O)C[C@@H](O)[C@H](O)CC[C@@H](O)C[C@@H](O)CC(=O)O[C@H]1C)C[C@H](O)[C@H]2C(=O)O [Amphotericin]
[2]; [5]
  inhibition at 15 min, 100 μM: 6.24%

## CC(=O)Oc1ccccc1C(=O)O [Aspirin]
[2]; [5]
  inhibition at 15 min, 100 μM: 5%

## C[C@@H](Cc1ccccc1)N(C)Cc1ccccc1 [Benzphetamine]
[3]
  % Inhibition of retinoic acid metabolism: 46.0%

## c1ccc(-c2ccc(C(c3ccccc3)n3ccnc3)cc2)cc1 (stereo not drawn) [Bifonazole]
[2]; [5]
  inhibition at 15 min, 100 μM: 47.5%

## CN(C)CCCN1c2ccccc2Sc2ccc(Cl)cc21 [Chlorpromazine]
[2]; [5]
  IC50 at 15 min: 16.9 ± 1.7 µM
[1]
  % Inhibition of retinoic acid metabolism: 85.0%
[1]; listed as chlorpromazine
  % Inhibition of retinoic acid metabolism: > 50%

## CN/C(=N/CCSCc1nc[nH]c1C)NC#N [Cimetidine]
[2]; [5]
  inhibition at 15 min, 100 μM: 1%

## Clc1ccccc1C(c1ccccc1)(c1ccccc1)n1ccnc1 [Clotrimazole]
[2]; [5]
  inhibition at 15 min, 100 μM: 34.4%

## O=c1ccc2ccccc2o1 [Coumarin]
[2]; [5]
  inhibition at 15 min, 100 μM: 37%

## O=C(O)c1cc(-c2ccc(F)cc2F)ccc1O [Diflunisal]
[2]; [5]
  inhibition at 15 min, 100 μM: 2%

## Clc1ccc(COC(Cn2ccnc2)c2ccc(Cl)cc2Cl)cc1 (stereo not drawn) [Econazole]
[2]; [5]
  inhibition at 15 min, 100 μM: 14%

## COC1=CC(=O)C[C@@H](C)[C@]12Oc1c(Cl)c(OC)cc(OC)c1C2=O [Griseofulvin]
[2]; [5]
  inhibition at 15 min, 100 μM: 0%

## NCCc1c[nH]cn1 [Histamine]
[2]; [5]
  inhibition at 15 min, 100 μM: 0%

## COc1ccc2c(c1)c(CC(=O)O)c(C)n2C(=O)c1ccc(Cl)cc1 [Indomethacin]
[2]; [5]
  inhibition at 15 min, 100 μM: 0%

## CCC(C)n1ncn(-c2ccc(N3CCN(c4ccc(OCC5COC(Cn6cncn6)(c6ccc(Cl)cc6Cl)O5)cc4)CC3)cc2)c1=O (stereo not drawn) [Itraconazole]
[2]; [5]
  IC50 at 15 min: 17.4 ± 1 µM
  inhibition at 15 min, 100 μM: > 50%
[1]
  % Inhibition of retinoic acid metabolism: 68.7%

## CC(=O)N1CCN(c2ccc(OCC3COC(Cn4ccnc4)(c4ccc(Cl)cc4Cl)O3)cc2)CC1 (stereo not drawn) [Ketoconazole]
[2]; [5]
  IC50 at 15 min: 13.5 ± 1.3 µM
  inhibition at 15 min, 100 μM: 87.5%

## Clc1cccc(C(c2ccc3[nH]cnc3c2)n2ccnc2)c1 (stereo not drawn) [Liarozole]
[2]; [5]
  IC50 at 15 min: 4.2 ± 0.1 µM
  inhibition at 15 min, 100 μM: 89%

## Clc1ccc(COC(Cn2ccnc2)c2ccc(Cl)cc2Cl)c(Cl)c1 (stereo not drawn) [Miconazole]
[2]; [5]
  inhibition at 15 min, 100 μM: 13.5%

## c1ccc(CCNCc2ccccc2)cc1 [N-Benzyl-2-phenylethanamine]
[2]; pH 7.4
  IC50 at 15 min: 17.1 ± 3.2 µM
[1]
  % Inhibition of retinoic acid metabolism: 85.0%
[1]; listed as N-benzyl-2-phenylethanamine
  % Inhibition of retinoic acid metabolism: > 50%

## O=C(Cn1ccnc1)c1ccc2ccccc2c1 [Nafimidone]
[2]; [5]
  inhibition at 15 min, 100 μM: 12%

## CCC1(c2ccc([N+](=O)[O-])cc2)CCC(=O)NC1=O (stereo not drawn) [Nitroglutethimide]
[1]
  % Inhibition of retinoic acid metabolism: −1.4%

## C[C@@H]1[C@H](O)[C@@H](C)/C=C/C=C/CC/C=C/C=C/C=C/C=C/C(O[C@H]2O[C@H](C)[C@@H](O)[C@H](N)[C@@H]2O)CC2O[C@](O)(CC(O)C(O)CCC(O)CC(O)CC(O)CC(=O)O[C@H]1C)CC(O)C2C(=O)O (stereo partly drawn) [Nystatin]
[1]
  % Inhibition of retinoic acid metabolism: 5.44%

## CCC1(c2ccccc2)C(=O)NC(=O)NC1=O [Phenobarbitone]
[3]
  % Inhibition of retinoic acid metabolism: 0.0%

## CN1C(=O)CC(c2ccccc2)C1=O (stereo not drawn) [Phensuximide]
[2]; [5]
  inhibition at 15 min, 100 μM: 3.5%

## CCCC(C(=O)OCCN(CC)CC)(c1ccccc1)c1ccccc1 [Proadifen]
[2]; [5]
  IC50 at 15 min: 1 ± 0.14 µM
[1]
  % Inhibition of retinoic acid metabolism: 86.0%
[1]; listed as proadifen
  % Inhibition of retinoic acid metabolism: > 50%

## CC(=O)C[C@H](c1ccccc1)c1c(O)c2ccccc2oc1=O [R-Warfarin]
[1]
  % Inhibition of retinoic acid metabolism: 3.0%

## CC1=C(/C=C/C(C)=C/C=C/C(C)=C/C(=O)O)C(C)(C)CCC1 [RA, All-trans-retinoic acid]
Mouse embryo; dose of 1 mg/Kg RA, mice
  developmental / teratogenic effect: no teratogenic effects
Mouse embryo; dose of 10 mg/Kg body weight of RA
  increase in the level of RA in mouse embryo limb buds: approximately 50 fold
Mouse embryo; dose of 10 mg/Kg body weight of RA, mouse
  developmental / teratogenic effect: developmental abnormalities
[4]
  plasma t ½: < 1 h

## CC(=O)C[C@@H](c1ccccc1)c1c(O)c2ccccc2oc1=O [S-Warfarin]
[1]
  % Inhibition of retinoic acid metabolism: 6.5%

## c1ccc2[nH]c(-c3cscn3)nc2c1 [Thiabendazole]
[2]; [5]
  inhibition at 15 min, 100 μM: -4.31%

## O=C(O)/C=C\C(=O)O.S=C(NC1CCCCC1)N1CCC(c2cnc[nH]2)CC1 [Thiopermide maleate]
[1]
  % Inhibition of retinoic acid metabolism: 3.4%
